The values below come from US8742100B2, “Small molecule inhibitors of isoprenylcysteine carboxyl methyltransferase with potential anticancer activity” (National University of Singapore, priority 2009, dated 2014).

Read-outs that look alike come from different tables or passages of the source. Where only a bound is given, the exact number is not on record here.

Data set [1] deals with MDA-MB-231 human breast cells. Kind of data set: Proliferation assay, CellTiter 96 AQueous One Solution (MTS). The format is cell-based. The following applies: for inhibition at 10 µM: read-out: inhibition in initial screen at a fixed concentration. How it is done:
The MDA-MB-231 human breast cells were maintained at 37° C. with 5% CO2 in DMEM (Sigma) supplemented with 10% fetal bovine serum (FBS, Hyclone), 50 U/ml penicillin (Gibco), and 50 μg/ml streptomycin (Gibco). […] The relative number of the live cells was determined using the CellTiter® 96 AQueous One Solution Cell Proliferation Assay (Promega). Each condition was performed in triplicate, and data presented represent that obtained from at least two separate experiments.
The MDA-MB-231 human breast cells were maintained at 37° C. with 5% CO2 in DMEM (Sigma) supplemented with 10% fetal bovine serum (FBS, Hyclone), 50 U/ml penicillin (Gibco), and 50 μg/ml streptomycin (Gibco). […] The relative number of the live cells was determined using the CellTiter® 96 AQueous One Solution Cell Proliferation Assay (Promega). Each condition was performed in triplicate, and data presented to date were obtained from one determination.

Data set [2] concerns the target T1, Icmt (Homo sapiens, UniProt O60725).
T1 construct: host or cells: Sf9 membranes
Kind of data set: Measurement of ICMT activity: incorporation of 3H from [3H]AdoMet into biotin-S-farnesyl L-cysteine, Sf9 membranes containing ICMT. The format is biochemical. The following applies: mean of two separate determinations; ±SD where more than two; read-out: IC50 Icmt inhibition. As for the experimental part: (§1) Measurement of ICMT activity. Icmt activity was determined by following incorporation of ^3H from [^3H]AdoMet (Amersham Biosciences) into the small molecule substrate biotin-S-farnesyl L-cysteine (BFC). Inhibitors were first incubated at 37° C. for 20 min, with the Sf9 membranes containing ICMT. An assay mixture containing 4 μM BFC and 5 μM [^3H]AdoMet in 100 mM Hepes, pH 7.4 and 5 mM MgCl2 was added to initiate the reaction. Reactions were carried out at 37° C. for 20 min, and terminated by addition of 10% Tween 20 and streptavidin beads (GE Healthcare, 10 uL of packed beads suspended in 500 μL of 20 mM NaH2PO4, pH 7.4, containing 150 mM NaCl). The mixtures were mixed by gentle agitation overnight at 4° C. The beads were harvested by centrifugation in a tabletop microcentrifuge at 10,000 rpm for 5 min and washed three times with 500 μL of 20 mM NaH2PO4, pH 7.4, containing 150 mM NaCl. The beads were then suspended in the same buffer, transferred to scintillation vials, and radioactivity determined.
as §1, with “Activity.” for “activity.”

The nature of data set [3]: Binding to fetal bovine serum (plasma protein binding), centrifugal filter device, HPLC. The format is in vitro ADME. Conditions: bovine, 5% w/v fetal bovine serum in phosphate buffered saline; for fraction unbound at 30 min, 1 µM / fraction unbound at 30 min, 4 µM / fraction unbound at 30 min, 10 µM / fraction unbound at 30 min, 25 µM: 5% fetal bovine serum in PBS. As for the experimental part: Semi-automatic high-throughput determination of plasma protein binding using a 96-well plate filtrate assembly and fast liquid chromatography—tandem mass spectrometry. […] Stock solutions were prepared in DMSO at 100× higher concentrations. A 5% w/v solution of fetal bovine serum in phosphate buffered saline was prepared. An aliquot (10 μL of the stock solution was added to 990 μL of the PBS solution containing 5% fetal bovine serum in a glass tube which was then incubated in a shaking water bath at 37° C. for 30 min. 500 μL of the solution was then transferred to a centrifugal filter device (Amicon Ultra 0.5 ml # UFC503096) and centrifuged at 14 000g, 15 min. After this time, the filter units were removed and placed (upside down) in a collecting tube containing 477 μL, of PBS. The latter was centrifuged at 2000g, 2 min to obtain the retentate. […] J.

[4] abbreviates: Homo sapiens, MDA-MB-231, 72 h, MDA-MB-231 cells, MTS colorimetric assay, 72 h, one determination.
Setting [5] is: Homo sapiens, MDA-MB-231 cells, MTS colorimetric assay, 72 h, one determination, read-out: IC50.
Where [6] appears, read: Homo sapiens, MDA-MB-231 cells, 72 h, mean of two separate determinations, ±SD where more than two, read-out: IC50 Antiproliferative activity.
[7] abbreviates: Homo sapiens, MDA-MB-231, 72 h, read-out: IC50 Antiproliferative activity, MDA-MB-231 cells, 72 h, mean of two separate determinations, ±SD where more than two.
[8] abbreviates: read-out: % Bound Average (converted).
[9] abbreviates: read-out: % Bound Run 1 (converted).
Where [10] appears, read: read-out: % Bound Run 2 (converted).
Where [11] appears, read: read-out: % Bound Run 3 (converted).

T1 sequence (O60725 whole entry, species assumed): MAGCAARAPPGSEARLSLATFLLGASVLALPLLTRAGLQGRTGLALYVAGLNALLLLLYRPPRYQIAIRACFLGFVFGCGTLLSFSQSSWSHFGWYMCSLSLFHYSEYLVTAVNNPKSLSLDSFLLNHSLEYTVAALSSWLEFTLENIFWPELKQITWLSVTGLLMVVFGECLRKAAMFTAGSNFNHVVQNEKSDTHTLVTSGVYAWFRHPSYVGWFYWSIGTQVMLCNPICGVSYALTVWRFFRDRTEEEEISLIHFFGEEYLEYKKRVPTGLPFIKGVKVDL

On to `CCCCCCCCn1cc(CN(C)C)c2cc(F)ccc21` [6-9(1), 1-(5-fluoro-1-octyl-1H-indol-3-yl)-N,N-dimethylmethanamine], for which, in data set [1] (setting [4]), the half-inhibitory concentration (IC50) (commonly the midpoint of a concentration-inhibition curve) was found to be 4.9 µM.
Same read-out and setting: next, `CCCCCCCCn1cc(CN2CCCCC2)c2cc(F)ccc21` [6-9(2), 5-fluoro-1-octyl-3-(piperidin-1-ylmethyl)-1H-indole]: 2.3 µM.
As to `CCCCCCCCn1cc(CN2CCSCC2)c2cc(F)ccc21` [6-9(3), 4-((5-fluoro-1-octyl-1H-indol-3-yl)methyl)thiomorpholine], in data set [1] (Homo sapiens, MDA-MB-231 cells), the inhibition at 10 µM is ~45%.
Take `CCCCCCCCn1cc(CN2CCOCC2)c2cc(F)ccc21` [6-9(4), 4-((5-fluoro-1-octyl-1H-indol-3-yl)methyl)morpholine]: the IC50 in data set [1] (setting [5]) came to 3.2 µM.
Same read-out and setting: the figure for `CCCCCCCCn1cc(CN2CCCC2)c2cc(F)ccc21` [6-9(5), 5-fluoro-1-octyl-3-(pyrrolidin-1-ylmethyl)-1H-indole] is 2.2 µM.
Take `CCCCCCCCn1cc(CN2CCN(C)CC2)c2cc(F)ccc21` [6-9(6), 5-fluoro-3-((4-methylpiperazin-1-yl)methyl)-1-octyl-1H-indole]: the inhibition at 10 µM in data set [1] (Homo sapiens, MDA-MB-231 cells) was ~45%.
Consider `CCCCCCCCn1cc(CC(N)=O)c2cc(F)ccc21` [Compound 1-8, 2-(5-Fluoro-1-octyl-1H-indol-3-yl)acetamide], for which the concentration for half-maximal inhibition (IC50) in data set [2] worked out at 7 µM; in data set [1] (setting [6]) it was 70 µM.
In the case of `CCCCCCCCn1cc(CC(=O)N2CCN(C)CC2)c2cc(-c3cccc(C)c3)ccc21` [Compound 3-6, 1-(4-Methylpiperazin-1-yl)-2-(1-octyl-5-m-tolyl-1H-indol-3-yl)ethanone], the half-maximal inhibitory concentration (IC50) in data set [2] amounted to 1.7 ± 0.4 µM; in data set [1] (setting [7]), 19.7 ± 0.9 µM.
`CCCCCCCCn1cc(CC(=O)NC)c2cc(-c3cccc(C)c3)ccc21` [Compound 3-7, N-Methyl-2-(1-octyl-5-m-tolyl-1H-indol-3-yl)acetamide]: the IC50 in data set [2] stood at 2.1 µM; in data set [1] (setting [6]) it was 4.7 µM.
Consider `CCCCCCCCn1cc(C(N)=O)c2cc(-c3cccc(C)c3)ccc21` [Compound 5-1, 1-Octyl-5-m-tolyl-1H-indole-3-carboxamide], for which the 50% inhibitory concentration (IC50) in data set [2] was 30 µM; in data set [1] (setting [7]), > 100 µM.
On to `CCCCCCCCn1cc(CCC(N)=O)c2cc(-c3cccc(C)c3)ccc21` [Compound 5-2, 3-(1-Octyl-5-m-tolyl-1H-indol-3-yl)propanamide], for which the IC50 in data set [2] came out at 1.2 µM; in data set [1] (setting [6]), 20.7 µM.
In the same order, the values of `CC(C)=CCn1ccc2cc(-c3cccc(C)c3)ccc21` [Compound 6-3, 1-(3-Methylbut-2-enyl)-5-m-tolyl-1H-indole] are > 100 µM and > 100 µM.
Regarding `CC(C)=CCn1cc(CN2CCOCC2)c2cc(-c3cccc(C)c3)ccc21` [Compound 6-6, 4-((1-(3-methylbut-2-enyl)-5-m-tolyl-1H-indol-3-yl)methyl)morpholine], the IC50 was determined as 2 ± 0.8 µM in data set [2] and 34 ± 3 µM in data set [1] (setting [7]).
In the case of `CC(C)=CCn1cc(CC(N)=O)c2cc(F)ccc21` [Compound 6-8, 2-(5-Fluoro-1-(3-methylbut-2-enyl)-1H-indol-3-yl)acetamide], the concentration for half-maximal inhibition (IC50) in data set [2] was 69 µM; in data set [1] (setting [6]) it was > 100 µM.
Turning to `CCCCCCCCn1cc(CN(CC)CC)c2cc(F)ccc21` [Compound 6-9, N-ethyl-N-((5-fluoro-1-octyl-1H-indol-3-yl)methyl)ethanamine], the IC50 was 2.7 µM in data set [1] (setting [4]) and 2 µM in data set [1] (MDA-MB-231 cells, MTS colorimetric assay, 72 h, one determination).
Regarding `CCCCCCCCn1cc(CC(N)=O)c2cc(-c3cccc(C)c3)ccc21` [cysmethynil, 2-(1-octyl-5-m-tolyl-1H-indol-3-yl) acetamide, reference compound], the IC50 in data set [2] is 1.5 µM. The fraction unbound at 30 min, 1 µM in data set [3] (setting [8]) is 0.0962; in data set [3] (setting [9]), 0.107; in data set [3] (setting [10]) it was 0.0611; in data set [3] (setting [11]), 0.12. In addition, the fraction unbound at 30 min, 4 µM is 0.104 in data set [3] (setting [8]), 0.0557 in data set [3] (setting [9]), 0.124 in data set [3] (setting [10]) and 0.131 in data set [3] (setting [11]). Besides, the fraction unbound at 30 min, 10 µM was 0.0945 in data set [3] (setting [8]), 0.136 in data set [3] (setting [9]), 0.0943 in data set [3] (setting [10]) and 0.0538 in data set [3] (setting [11]). Also, the fraction unbound at 30 min, 25 µM in data set [3] (setting [8]) is 0.122; in data set [3] (setting [9]), 0.219; in data set [3] (setting [10]) it was 0.0636; in data set [3] (setting [11]) it was 0.0844. The fraction unbound at 30 min in data set [3] (all conc (1, 4, 10, 25 uM), read-out: % Bound Average, all conc (converted)) is 0.104.
